According to US20240307374A1, “FORMULATION OF FURIN INHIBITOR FOR INHALATION” (BP ASSET V, INC., priority 2021, published 2024):
Values after ≈ are worked out from the molar mass of the structure shown. “Also recorded” adds a separate entry of the source. Marks after values point to notes of the source that are not given here.

Experiments:
Format in all cases: physicochemical
Grinding stability = details: ~30 mg ground manually in a mortar for about 5 minutes
[1] = Equilibrium solubility in pH buffers (3.0-8.0), 20% captisol and water
[2] = Humidity induced experiments (solid-state stability of freeform Type D under different humidities); details: ~7%, ~22%, ~43%, ~58%, ~84% RH, RT, 6 weeks
Protocol: The 3-mL vial was then placed into a 20-mL vial with 4 mL of the corresponding saturated salt solution. The 20-mL vial was sealed with a cap and kept at RT for the water vapor to interact with the solid.

[3] = Solubility of freeform Type D with sugars
Protocol: The samples were sonicated for about 2 minutes, and the samples were almost clear (little solid was observed) and filtered for clear solution, pH of the solutions were 3.5. About 68.5 mg lactose and sucrose were added into the two solutions, respectively. The two samples were clear after adding sugar, and pH of the two samples remained 3.5. pH of the two solutions was adjusted to 5.1 by adding 1 M NaOH, and no solid precipitated out after pH adjustment.
The three solutions were stored under 5° C. for three days, and no solid precipitated out after cooling. The concentration and pH were tested for each sample.

[4] = Complexation stability constant test: solubility in HPβCD solutions; details: for solubility at 24 h: thermodynamic from solid
Protocol: Additional solid was added into the sample to generate suspension if clear solution was obtained. The suspension was equilibrated via stirring (1000 rpm) for 24 hours. The suspension was centrifuged to obtain precipitate and supernatants. Solubility and pH was determined for the supernatants after filtration, and XRPD was obtained for the isolated precipitate.

Solid state stability = test: Solid state stability; set-up: key to FC (form change): N: The form was not changed; details: for Purity: initial purity 99.62%
Protocol: Approximately 30 mg of each solid sample was added to an HPLC vial (sealed by Parafilm© and poked with several pinholes) and then stored at 25° C./60% RH, 40° C./75% RH and 60° C. for 28 days.
After 1/3/7/14/28 days storage, solids were taken out for HPLC and XRPD to evaluate chemical and physical stability, respectively.

[5] = 20% Captisol (pH = 5.0, w/v), 24 hrs
[6] = pH = 3.0 buffer (50 mM HCl + KCl), 24 hrs
[7] = pH = 5.0 buffer (50 mM citrate), 24 hrs
[8] = pH = 6.0 buffer (50 mM citrate), 24 hrs
[9] = pH = 7.0 buffer (50 mM phosphate), 24 hrs
[10] = pH = 8.0 buffer (50 mM phosphate), 24 hrs
[11] = 30 mmol freeform Type D + 30 mmol citric acid, initial pH 3.6
[12] = 50 mmol freeform Type D + 50 mmol citric acid + ~200 mmol lactose, initial pH 5.1
[13] = 50 mmol freeform Type D + 50 mmol citric acid + ~200 mmol sucrose, initial pH 5.1

Compound: CC(=O)NCC1CCN(Cc2cc(Oc3ccc(N4CCN(CCC(=O)O)CC4)nc3)nc(-c3cc(Cl)cc(Cl)c3)c2)CC1 [Freeform Type A]
- crystallinity after grinding (XRPD) (Grinding stability): decreased after grinding
- solubility at 24 h ([1]; 50 mM phosphate buffer, 21 °C, pH 8, aqueous buffer, thermodynamic from solid, pH = 8.0 buffer (50 mM phosphate), RT, 24 hrs, read-out: S: solubility): 20 µg/mL (≈ 31.2 µM)
- FC: form change (XRPD of precipitate) [1, 5]: N (N: solid form not changed)
- pH of supernatant (final pH) [1, 5]: 7.7
- S: solubility ([1]; 20% Captisol (pH = 5.0, w/v), RT, 24 hrs): 12.1 mg/mL
- FC: form change (XRPD of precipitate) ([1]; H2O, 24 hrs): N (N: solid form not changed)
- pH of supernatant (final pH) ([1]; H2O, 24 hrs): 6.8
- form change after equilibrium in all media ([1]; all media, 24 hours): No form change
- FC: form change (XRPD of precipitate) [1, 6]: N (N: solid form not changed)
- pH of supernatant (final pH) [1, 6]: 6.3
- S: solubility ([1]; pH = 3.0 buffer (50 mM HCl + KCl), RT, 24 hrs): 0.05 mg/mL
- pH of supernatant (final pH) ([1]; pH = 4.0 buffer (50 mM citrate), 24 hrs): 4.8
- S: solubility ([1]; pH = 4.0 buffer (50 mM citrate), RT, 24 hrs): >17.9^# mg/mL
- FC: form change (XRPD of precipitate) [1, 7]: N (N: solid form not changed)
- pH of supernatant (final pH) [1, 7]: 5.2
- S: solubility ([1]; pH = 5.0 buffer (50 mM citrate), RT, 24 hrs): 3.31 mg/mL
- FC: form change (XRPD of precipitate) [1, 8]: N (N: solid form not changed)
- pH of supernatant (final pH) [1, 8]: 6.1
- S: solubility ([1]; pH = 6.0 buffer (50 mM citrate), RT, 24 hrs): 0.18 mg/mL
- FC: form change (XRPD of precipitate) [1, 9]: N (N: solid form not changed)
- pH of supernatant (final pH) [1, 9]: 7.1
- FC: form change (XRPD of precipitate) [1, 10]: N (N: solid form not changed)
- pH of supernatant (final pH) [1, 10]: 8.0

Compound: CC(=O)NCC1CCN(Cc2cc(Oc3ccc(N4CCN(CCC(=O)O)CC4)nc3)nc(-c3cc(Cl)cc(Cl)c3)c2)CC1 [Freeform Type D]
- form change after exposure to different humidity levels (XRPD) [2]: no form change; also recorded: kinetically stable for at least 6 weeks
- Concentration [3, 11]: 18110 µg/mL
- End pH (24 hours) [3, 11]: 3.6
- Purity [3, 11]: 99.8 Area %
- Concentration [3, 12]: 26450 µg/mL
- End pH (24 hours) [3, 12]: 5.1
- Purity [3, 12]: 99.8 Area %
- Concentration [3, 13]: 26500 µg/mL
- End pH (24 hours) [3, 13]: 5.3
- Purity [3, 13]: 99.8 Area %
- solubility at 24 h ([4]; 5% (w/w) HPβCD solution, aqueous with cosolvent or surfactant or cyclodextrin, 5% (w/w) HPβCD, RT, 24 hours, final pH 7.3, read-out: Solubility): 420 µg/mL
- solubility at 24 h ([4]; 5% (w/w) HPβCD solution, pH 7.3, aqueous with cosolvent or surfactant or cyclodextrin, 5% HPβCD (40.78 mmol/L), read-out: API Solubility): 660 µM
- solubility at 24 h ([4]; 10% (w/w) HPβCD solution, aqueous with cosolvent or surfactant or cyclodextrin, 10% (w/w) HPβCD, RT, 24 hours, final pH 7.2, read-out: Solubility): 940 µg/mL
- solubility at 24 h ([4]; 10% (w/w) HPβCD solution, pH 7.2, aqueous with cosolvent or surfactant or cyclodextrin, 10% HPβCD (81.56 mmol/L), read-out: API Solubility): 1470 µM
- solubility at 24 h ([4]; 15% (w/w) HPβCD solution, aqueous with cosolvent or surfactant or cyclodextrin, 15% (w/w) HPβCD, RT, 24 hours, final pH 7.1, read-out: Solubility): 1420 µg/mL
- solubility at 24 h ([4]; 15% (w/w) HPβCD solution, pH 7.1, aqueous with cosolvent or surfactant or cyclodextrin, 15% HPβCD (122.34 mmol/L), read-out: API Solubility): 2220 µM
- solubility at 24 h ([4]; 20% (w/w) HPβCD solution, aqueous with cosolvent or surfactant or cyclodextrin, 20% (w/w) HPβCD, RT, 24 hours, final pH 7.0, read-out: Solubility): 2090 µg/mL
- solubility at 24 h ([4]; 20% (w/w) HPβCD solution, pH 7, aqueous with cosolvent or surfactant or cyclodextrin, 20% HPβCD (163.11 mmol/L), read-out: API Solubility): 3260 µM
- solubility at 24 h ([4]; 25% (w/w) HPβCD solution, aqueous with cosolvent or surfactant or cyclodextrin, 25% (w/w) HPβCD, RT, 24 hours, final pH 7.0, read-out: Solubility): 2890 µg/mL
- solubility at 24 h ([4]; 25% (w/w) HPβCD solution, pH 7, aqueous with cosolvent or surfactant or cyclodextrin, 25% HPβCD (203.89 mmol/L), read-out: API Solubility): 4510 µM
- form change during solubility evaluation (XRPD) ([4]; HPβCD solutions, 24 hours): No form change
- complexation stability constant K^1:1 ([4]; HPβCD, Higuchi-Connors phase-solubility method): 1529 M⁻¹
- degradation or form change (HPLC, XRPD) (Solid state stability; 25° C./60% RH, 40° C./75% RH and 60° C. for 28 days): No significant degradation or form change
- FC (form change) (Solid state stability; 25° C./60% RH, 28 days): N
- Purity (Solid state stability; 25° C./60% RH, 28 days): 99.6 area %
- FC (form change) (Solid state stability; 40° C./75% RH, 1 day): N
- Purity (Solid state stability; 40° C./75% RH, 1 day): 99.69 area %
- FC (form change) (Solid state stability; 40° C./75% RH, 3 days): N
- Purity (Solid state stability; 40° C./75% RH, 3 days): 99.56 area %
- FC (form change) (Solid state stability; 40° C./75% RH, 7 days): N
- Purity (Solid state stability; 40° C./75% RH, 7 days): 99.59 area %
- FC (form change) (Solid state stability; 40° C./75% RH, 14 days): N
- Purity (Solid state stability; 40° C./75% RH, 14 days): 99.69 area %
- FC (form change) (Solid state stability; 40° C./75% RH, 28 days): N
- Purity (Solid state stability; 40° C./75% RH, 28 days): 99.73 area %
- FC (form change) (Solid state stability; 60° C., 1 day): N
- Purity (Solid state stability; 60° C., 1 day): 99.74 area %
- FC (form change) (Solid state stability; 60° C., 3 days): N
- Purity (Solid state stability; 60° C., 3 days): 99.57 area %
- FC (form change) (Solid state stability; 60° C., 7 days): N
- Purity (Solid state stability; 60° C., 7 days): 99.51 area %
- FC (form change) (Solid state stability; 60° C., 14 days): N
- Purity (Solid state stability; 60° C., 14 days): 99.62 area %
- FC (form change) (Solid state stability; 60° C., 28 days): N
- Purity (Solid state stability; 60° C., 28 days): 99.66 area %
